Reference: ChEMBL document CHEMBL1649296, “Modifying culture conditions in chemical library screening identifies alternative inhibitors of mycobacteria” (Antimicrob Agents Chemother, 2009)
In brackets after ≈: the same amount, converted by molar mass. Counter-ions that a name gives are not always drawn.

How the values were obtained:
Type in all cases: functional, organism-based
[1] = tested on: Mycolicibacterium smegmatis; assay: Antimycobacterial activity against Mycobacterium smegmatis grown in Luria-Bertani broth medium assessed as growth inhibition in mid-logarithmic phase by spectrophotometry
[2] = tested on: Mycolicibacterium smegmatis; assay: Antimycobacterial activity against Mycobacterium smegmatis grown in carbon-limited broth medium assessed as growth inhibition in mid-logarithmic phase by spectrophotometry
[3] = tested on: Mycolicibacterium smegmatis; assay: Antimycobacterial activity against Mycobacterium smegmatis grown in nitrogen -limited broth medium assessed as growth inhibition in mid-logarithmic phase by spectrophotometry
[4] = tested on: Mycolicibacterium smegmatis; assay: Antimycobacterial activity against Mycobacterium smegmatis grown in Luria-Bertani broth medium assessed as growth inhibition in mid-logarithmic phase by GFP-based fluorescence assay
[5] = tested on: Mycolicibacterium smegmatis; assay: Antimycobacterial activity against Mycobacterium smegmatis grown in carbon-limited broth medium assessed as growth inhibition in mid-logarithmic phase by GFP-based fluorescence assay
[6] = tested on: Mycolicibacterium smegmatis; assay: Antimycobacterial activity against Mycobacterium smegmatis grown in nitrogen -limited broth medium assessed as growth inhibition in mid-logarithmic phase by GFP-based fluorescence assay

Row | Molecule | IC50 ([1]; Mycolicibacterium smegmatis) [µM] | MIC ([1]; Mycolicibacterium smegmatis) [µM] | IC50 ([2]; Mycolicibacterium smegmatis) [µM] | MIC ([2]; Mycolicibacterium smegmatis) [µM] | IC50 ([3]; Mycolicibacterium smegmatis) [µM] | MIC ([3]; Mycolicibacterium smegmatis) [µM] | IC50 ([4]; Mycolicibacterium smegmatis) [µM] | MIC ([4]; Mycolicibacterium smegmatis) [µM] | IC50 ([5]; Mycolicibacterium smegmatis) [µM] | MIC ([5]; Mycolicibacterium smegmatis) [µM] | IC50 ([6]; Mycolicibacterium smegmatis) [µM] | MIC ([6]; Mycolicibacterium smegmatis) [µM] | IC50 [1] [µM] | IC50 [2] [µM] | IC50 [3] [µM] | IC50 [4] [µM] | IC50 [5] [µM] | IC50 [6] [µM]
1 | N=C(N)c1ccc(OCCCCCOc2ccc(C(=N)N)cc2)cc1 [PENTAMIDINE] | 23.5 | 50 (≈ 17 µg/mL) | 11.1 | 25 (≈ 8.51 µg/mL) | 9.1 | 50 (≈ 17 µg/mL) | 23.5 | 50 (≈ 17 µg/mL) | 11.1 | 25 (≈ 8.51 µg/mL) | 9.1 | 50 (≈ 17 µg/mL) | – | – | – | – | – | –
2 | c1cnc2c(c1)ccc1cccnc12 [PHENANTHROLINE] | 41.6 | 50 (≈ 9.01 µg/mL) | 4.99 | 12.5 (≈ 2.25 µg/mL) | 5.76 | 12.5 (≈ 2.25 µg/mL) | 41.6 | 50 (≈ 9.01 µg/mL) | 4.99 | 12.5 (≈ 2.25 µg/mL) | 5.76 | 12.5 (≈ 2.25 µg/mL) | – | – | – | – | – | –
3 | CNc1ccc2oc(C[C@H]3O[C@@]4(CC[C@H]3C)O[C@H]([C@H](C)C(=O)c3ccc[nH]3)[C@H](C)C[C@H]4C)nc2c1C(=O)O [CALCIMYCIN] | 1.04 | 3.12 (≈ 1.64 µg/mL) | 5.21 | 12.5 (≈ 6.55 µg/mL) | 3.43 | 12.5 (≈ 6.55 µg/mL) | 1.04 | 3.12 (≈ 1.64 µg/mL) | 5.21 | 12.5 (≈ 6.55 µg/mL) | 3.43 | 12.5 (≈ 6.55 µg/mL) | – | – | – | – | – | –
4 | 4-CHLOROMERCURIBENZOIC ACID | – | – | – | – | – | – | – | – | – | – | – | – | 7.07 | 7.65 | 6.33 | 7.07 | 7.65 | 6.33
5 | CN[C@H](CC(C)C)C(=O)N[C@H]1C(=O)N[C@@H](CC(N)=O)C(=O)N[C@H]2C(=O)N[C@H]3C(=O)N[C@H](C(=O)N[C@H](C(=O)O)c4cc(O)cc(O)c4-c4cc3ccc4O)[C@H](O)c3ccc(c(Cl)c3)Oc3cc2cc(c3O[C@@H]2O[C@H](CO)[C@@H](O)[C@H](O)[C@H]2O[C@H]2C[C@](C)(N)[C@H](O)[C@H](C)O2)Oc2ccc(cc2Cl)[C@H]1O [VANCOMYCIN] | 3.18 | 12.5 (≈ 18.1 µg/mL) | 16.7 | 25 (≈ 36.2 µg/mL) | 11.1 | 25 (≈ 36.2 µg/mL) | 3.18 | 12.5 (≈ 18.1 µg/mL) | 16.7 | 25 (≈ 36.2 µg/mL) | 11.1 | 25 (≈ 36.2 µg/mL) | – | – | – | – | – | –
6 | CC(C)(C)c1ccc(S(=O)(=O)/C=C/C#N)cc1 [BAY-11-7085] | 30.6 | 50 (≈ 12.5 µg/mL) | 2.58 | 6.25 (≈ 1.56 µg/mL) | 6.22 | 12.5 (≈ 3.12 µg/mL) | 30.6 | 50 (≈ 12.5 µg/mL) | 2.58 | 6.25 (≈ 1.56 µg/mL) | 6.22 | 12.5 (≈ 3.12 µg/mL) | – | – | – | – | – | –
7 | CN(C)C(CCCCC[N+](C)(C)CCCN1C(=O)c2cccc3cccc(c23)C1=O)CCCN1C(=O)c2cccc3cccc(c23)C1=O (stereo not drawn) | 8.15 | 50 | 11.7 | 50 | 6 | 25 | 8.15 | 50 | 11.7 | 50 | 6 | 25 | – | – | – | – | – | –
8 | CN(C)c1ccc(O)c2c1C[C@H]1C[C@H]3[C@H](N(C)C)C(O)=C(C(N)=O)C(=O)[C@@]3(O)C(O)=C1C2=O [MINOCYCLINE] | 6.77 | 12.5 (≈ 5.72 µg/mL) | 5.02 | 12.5 (≈ 5.72 µg/mL) | 7.23 | 12.5 (≈ 5.72 µg/mL) | 6.77 | 12.5 (≈ 5.72 µg/mL) | 5.02 | 12.5 (≈ 5.72 µg/mL) | 7.23 | 12.5 (≈ 5.72 µg/mL) | – | – | – | – | – | –
9 | CC(=O)[C@]1(O)Cc2c(O)c3c(c(O)c2[C@@H](O[C@H]2C[C@H](N)[C@H](O)[C@H](C)O2)C1)C(=O)c1ccccc1C3=O [IDARUBICIN] | 3.61 | 12.5 (≈ 6.22 µg/mL) | 6.68 | 25 (≈ 12.4 µg/mL) | 5.13 | 12.5 (≈ 6.22 µg/mL) | 3.61 | 12.5 (≈ 6.22 µg/mL) | 6.68 | 25 (≈ 12.4 µg/mL) | 5.13 | 12.5 (≈ 6.22 µg/mL) | – | – | – | – | – | –
10 | c1ccc2c(c1)[I+]c1ccccc1-2 [DIPHENYLENEIODONIUM] | 6.77 | 6.25 | 8.53 | 3.12 | 1.63 | 3.12 | 6.77 | 6.25 | 8.53 | 3.12 | 1.63 | 3.12 | – | – | – | – | – | –
11 | C[Se]C[C@H](N)C(=O)O [METHYLSELENOCYSTEINE] | > 50 | > 50 | 2.19 | 12.5 (≈ 2.28 µg/mL) | 0.6 | 12.5 (≈ 2.28 µg/mL) | > 50 | > 50 | 2.19 | 12.5 (≈ 2.28 µg/mL) | 0.6 | 12.5 (≈ 2.28 µg/mL) | – | – | – | – | – | –
12 | Clc1ccc(C(c2ccc(Cl)cc2)[n+]2ccn(CC(OCc3ccc(Cl)cc3Cl)c3ccc(Cl)cc3Cl)c2)cc1 (stereo not drawn) [CALMIDAZOLIUM CHLORIDE] | 13.2 | 12.5 | 13.8 | 50 | 7.02 | 12.5 | 13.2 | 12.5 | 13.8 | 50 | 7.02 | 12.5 | – | – | – | – | – | –
13 | Clc1ccccc1C(c1ccccc1)(c1ccccc1)n1ccnc1 [CLOTRIMAZOLE] | 6.54 | 12.5 (≈ 4.31 µg/mL) | 18.2 | 50 (≈ 17.2 µg/mL) | 12.2 | 50 (≈ 17.2 µg/mL) | 6.54 | 12.5 (≈ 4.31 µg/mL) | 18.2 | 50 (≈ 17.2 µg/mL) | 12.2 | 50 (≈ 17.2 µg/mL) | – | – | – | – | – | –
14 | Cc1cc(N)c2ccccc2[n+]1CCCCCCCCCCCCCC[n+]1c(C)cc(N)c2ccccc21 | 3.95 | 6.25 | 2.73 | 6.25 | 1.74 | 3.12 | 3.95 | 6.25 | 2.73 | 6.25 | 1.74 | 3.12 | – | – | – | – | – | –
15 | C[C@H]1c2cccc(O)c2C(=O)C2=C(O)[C@]3(O)C(=O)C(C(N)=O)=C(O)[C@@H](N(C)C)[C@@H]3[C@@H](O)[C@@H]21 [DOXYCYCLINE] | 0.76 | 1.56 (≈ 0.693 µg/mL) | 2.98 | 3.12 (≈ 1.39 µg/mL) | 1.95 | 3.12 (≈ 1.39 µg/mL) | 0.76 | 1.56 (≈ 0.693 µg/mL) | 2.98 | 3.12 (≈ 1.39 µg/mL) | 1.95 | 3.12 (≈ 1.39 µg/mL) | – | – | – | – | – | –
16 | COc1ccccc1CNCCCCCCNCCCCCCCCNCCCCCCNCc1ccccc1OC [METHOCTRAMINE HYDROCHLORIDE] | 15.9 | 12.5 | 6.88 | 12.5 | 7.45 | 12.5 | 15.9 | 12.5 | 6.88 | 12.5 | 7.45 | 12.5 | – | – | – | – | – | –
17 | CCn1cc(C(=O)O)c(=O)c2cc(F)c(N3CCNC(C)C3)c(F)c21 (stereo not drawn) [LOMEFLOXACIN] | 4.33 | 12.5 (≈ 4.39 µg/mL) | 4.88 | 6.25 (≈ 2.2 µg/mL) | 1.44 | 6.25 (≈ 2.2 µg/mL) | 4.33 | 12.5 (≈ 4.39 µg/mL) | 4.88 | 6.25 (≈ 2.2 µg/mL) | 1.44 | 6.25 (≈ 2.2 µg/mL) | – | – | – | – | – | –
